Data on 1 compound can be found in patent US11453858B2, “Human plasma-like medium” (Whitehead Institute for Biomedical Research, priority 2016, dated 2022).

Test [1] relates to SW620 cells. Nature of the test: drug treatment assay, cell viability by Cell-Titer Glo. The class given is cell-based, human. The following applies: removal of uric acid from HPLM+dIFS. Here is the method: SW620 cells were seeded at a density of 2000 cells/well and allowed to attach for 24 hr. 5-FU and doxorubicin were prepared in DMSO and dispensed using an HP D300 compound dispenser. Cell viability was assessed with Cell-Titer Glo at 4 days following treatment and luminescence was measured as described above.
(§1) Dose-response values were plotted in GraphPad Prism and fit using a One Site-Fit log IC50 equation.

In test [2] the test system is NOMO1 cells. Nature of the test: drug treatment assay, cell viability by Cell Titer-Glo. The format is cell-based, human. The method, then: After 24 hr incubation, cells were treated with 5-FU (100 nM, 1 μM, 10 μM, 100 μM, or 1 mM) or doxorubicin (1.95 nM, 7.81 nM, 31.25 nM, 125 nM, or 500 nM). All wells, including untreated controls, contained 0.5% DMSO. Following addition of drugs, plates were gently shaken for 2 min. After 4 days of treatment, 200 μL from each well was transferred to a white 96-well plate (Greiner) and cell viability was assessed with Cell Titer-Glo (Promega). Luminescence was measured with a SpectraMax M5 Plate Reader (Molecular Devices) and normalized to an untreated control.
as §1
(In general: Cellular ATP, detected with luciferase, serves as a proxy for viable cell number.)

In the case of `COc1cccc2c1C(=O)c1c(O)c3c(c(O)c1C2=O)C[C@@](O)(C(=O)CO)C[C@@H]3O[C@H]1C[C@H](N)[C@H](O)[C@H](C)O1` [doxorubicin], the doxorubicin sensitivity result in test [1] is “did not influence doxorubicin sensitivity”; in test [2] (removal of uric acid from HPLM+dIFS), “without affecting doxorubicin sensitivity”. Also, in test [2] (culture in HPLM+dIFS compared to RPMI+IFS and RPMI+dIFS), the potency of doxorubicin entry was “without affecting the potency of doxorubicin”.
